Data from patent US11498928B2, “Macrocyclic spiroethers as Mcl-1 inhibitors” (ASCENTAGE PHARMA (SUZHOU) CO., LTD., priority 2019, dated 2022).

What was measured:
OPM-2 cells = experiment: Cell viability assay (OPM-2 cells), CCK-8; assay type: cell-based; conditions: 5% FBS
Description: OPM-2 cells were obtained from Deutsche Sammlung von Mikroorganismen and Zellkulturen GmbH (DSMZ). Cells were maintained in the recommended culture medium with 10% FBS at 37° C. and an atmosphere of 5% CO2.
The effect of representative Compounds of the Disclosure on cell viability was determined using Cell Counting Kit-8 (CCK-8) assay (Shanghai Life iLab Bio Technology) according to the manufacturer's instructions. Each tested compound was serially diluted in culture medium, 100 μL of the compound dilution was added into 96-well plates. 100 μL of an OPM-2 cell suspension (20000 cells/well) in culture medium were seeded into the corresponding well of the plate and the cells were incubated at 37° C. in an atmosphere of 5% CO2 for 24 hours. In the next day, 20 μL of CCK-8 solution was added to each well of the plate and incubated for 4 hours.
The plates were read at 450 nm on the microplate spectrophotometer (SpectraMax plus 384, Molecular devices). The readings were normalized to the vehicle cells, and the IC50 was calculated by nonlinear regression analysis using GraphPad Prism 6 software.

[1] = biological target: T1, Mcl-1 protein (residues 171-323) (Homo sapiens, UniProt Q07820); experiment: Inhibition of Mcl-1 by fluorescence polarization (FP) competitive binding assay with FAM-Bid tracer; conditions: 2 nM FAM-Bid, 20 nM Mcl-1, 30 min
T1 construct: Tag-free Mcl-1 protein (residues 171-323) was used in the FP assay
T1 sequence (Q07820 171-323): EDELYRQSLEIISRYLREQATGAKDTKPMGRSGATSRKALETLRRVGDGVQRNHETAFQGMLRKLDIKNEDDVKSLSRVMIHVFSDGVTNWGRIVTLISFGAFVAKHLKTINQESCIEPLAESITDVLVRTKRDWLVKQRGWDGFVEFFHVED
Description: Inhibition of Mcl-1 by Fluorescence Polarization (FP) Assay.
The relative binding potency of representative Compounds of the Disclosure was determined by a fluorescence polarization (FP) assay (Long et al, BMC Biotechnology 13:45 (2013)). The method used a fluorescein labelled peptide (FAM-Bid) which binds to the Mcl-1 protein leading to an increased anisotropy measured in milli-polarization (mP) values using a plate reader. […] Tag-free Mcl-1 protein (residues 171-323) was used in the FP assay (Mady et al, Scientific Reports 8: 10210-10210 (2018); Yang et al, ACS Med. Chem. Lett. 3:308-312 (2012)).
A 10-points serial dilution of each compound was prepared in DMSO and 5 μL solution was transferred into flat bottomed, 96-well back plate (final DMSO concentration 5%). 120 μL of Buffer (PBS, 0.01% BGG (Sigma Cat. #SRE0011), 0.01% Triton X-100), containing the Fluorescein labelled peptide (Final concentration 2 nM) and Mcl-1 protein (final concentration 20 nM) was then added. Assay plates were incubated 30 mins at room temperature with gentle shaking before FP was measured on a Biotek Synergy 1MF reader (Ex. 485 nm, Em. 528 nm, Cut off 510 nm) and mP calculated. The binding of increasing doses of test compounds was expressed as a percentage reduction in mP compared to a window established between 5% DMSO only and 100% inhibition controls (no Mcl-1 protein). 10-points dose response curves were plotted with GraphPad software using Sigmoidal Dose-Response Model and the IC50 values were determined by nonlinear regression fitting of the competition curves. Cell Viability Assay (NCI-H929 cells)

NCI-H929 cells = experiment: Cell viability assay (NCI-H929 cells), CCK-8; assay type: cell-based; conditions: 5% FBS
Description: NCI-H929 cells were obtained from American Type Culture Collection (ATCC). Cells were maintained in the recommended culture medium (RPMI 1640) with 10% FBS and 0.05 mM BME at 37° C. and an atmosphere of 5% CO2.
The effect of Compounds on cell viability was determined using Cell Counting Kit-8 (CCK-8) assay according to the manufacturer's instructions. 95 μL of NCI-H929 cell suspension (20000 cells/well) in culture medium were seeded into 96-well plates and cultured 4 hrs. Each tested compound was serially diluted in DMSO, then 5 μL of the compound or DMSO was diluted in 95 μL medium once more. At last, 5 μL of the compound dilution was added to the corresponding well of the cell plate. After the addition of the tested compound, the cells were incubated at 37° C. in an atmosphere of 5% CO2 for 24 hrs. At the end, 10 μL of CCK-8 solution was added to each well of the plate and incubated for 1-4 hours. The plates were read at 450 nm on the microplate reader (BioTek Synergy 1MF). The readings were normalized to the vehicle cells, and the IC50 was calculated by nonlinear regression analysis using GraphPad Prism 6 software. Cell Viability Assay (OPM-2 cells)

Structure (SMILES)	IC50 [1]	IC50 (NCI-H929 cells; Homo sapiens, NCI-H929, 24 h)	IC50 (NCI-H929 cells; 24 h)	IC50 (OPM-2 cells; Homo sapiens, OPM-2, 24 h)	IC50 (OPM-2 cells; 24 h)
CO[C@H]1C2=C[C@@H](C2)[C@H](C)N(C[C@H]2CCCO2)S(=O)(=O)NC(=O)c2ccc3c(c2)N(C[C@@H]2CC[C@H]21)C[C@@]1(CCCc2cc(Cl)ccc21)CO3 (single isomer, unassigned) [30 (isomer 4)]	0.021 µM	> 10 µM	–	> 10 µM	–
CO[C@H]1C2=CC(CCS(=O)(=O)NC(=O)c3ccc4c(c3)N(C[C@@H]3CC[C@H]31)C[C@@]1(CCCc3cc(Cl)ccc31)CO4)C2 (single isomer, unassigned) [Cpd. No. 1 (Isomer 1)]	0.0068 µM	–	0.36 µM	–	0.547 µM
CO[C@@H]1C2=CC(CCS(=O)(=O)NC(=O)c3ccc4c(c3)N(C[C@@H]3CC[C@H]31)C[C@@]1(CCCc3cc(Cl)ccc31)CO4)C2 (single isomer, unassigned) [Cpd. No. 4 (Isomer 1)]	0.0083 µM	–	4.2 µM	–	5.72 µM
CO[C@@H]1C2=CC(CCS(=O)(=O)NC(=O)c3ccc4c(c3)N(C[C@@H]3CC[C@H]31)C[C@@]1(CCCc3cc(Cl)ccc31)CO4)C2 (single isomer, unassigned) [Cpd. No. 4 (Isomer 2)]	0.012 µM	–	1.6 µM	–	2.12 µM
CO[C@H]1C2=CC(C2)C(C)(C)CS(=O)(=O)NC(=O)c2ccc3c(c2)N(C[C@@H]2CC[C@H]21)C[C@@]1(CCCc2cc(Cl)ccc21)CO3 (single isomer, unassigned) [Cpd. No. 5 (Isomer 2)]	0.0083 µM	–	1.6 µM	–	5.21 µM
CO[C@H]1C2=CC(C2)[C@H](C)CS(=O)(=O)NC(=O)c2ccc3c(c2)N(C[C@@H]2CC[C@H]21)C[C@@]1(CCCc2cc(Cl)ccc21)CO3 (single isomer, unassigned) [Cpd. No. 14 (Isomer 2)]	0.011 µM	–	0.15 µM	–	1.31 µM
CO[C@H]1C2=C[C@H](C2)[C@H](C)[C@@H](C)S(=O)(=O)NC(=O)c2ccc3c(c2)N(C[C@@H]2CC[C@H]21)C[C@@]1(CCCc2cc(Cl)ccc21)CO3 (single isomer, unassigned) [Cpd. No. 15 (isomer 2)]	0.0065 µM	0.23 µM	–	1 µM	–
CO[C@H]1C2=C[C@H](C2)[C@H](C)[C@@H](C)S(=O)(=O)NC(=O)c2ccc3c(c2)N(C[C@@H]2CC[C@H]21)C[C@@]1(CCCc2c1ccc(Cl)c2F)CO3 (single isomer, unassigned) [Cpd. No. 17 (isomer 2)]	0.012 µM	0.31 µM	–	0.601 µM	–
CO[C@H]1C2=CC(C2)[C@H](C)[C@@H](C)S(=O)(=O)NC(=O)c2ccc3c(c2)N(C[C@@H]2CC[C@H]21)C[C@@]1(CCCc2c1cc(F)c(Cl)c2F)CO3 (single isomer, unassigned) [Cpd. No. 19]	0.019 µM	0.67 µM	–	0.802 µM	–
C[C@@H]1[C@@H](C)S(=O)(=O)NC(=O)c2ccc3c(c2)N(C[C@@H]2CC[C@H]2[C@@H](N2CCOCC2)C2=C[C@H]1C2)C[C@@]1(CCCc2c1ccc(Cl)c2F)CO3 (single isomer, unassigned) [compound 56]	0.0077 µM	0.049 µM	–	0.065 µM	–
CO[C@H]1C2CC(C2)[C@H](C)N(C)S(=O)(=O)NC(=O)c2ccc3c(c2)N(C[C@@H]2CC[C@H]21)C[C@@]1(CCCc2cc(Cl)ccc21)CO3 [Cpd. No. 28, (1S,12′S,16′S,16a′R,18a′R)-6-chloro-16′-methoxy-11′,12′-dimethyl-3,4,12′,13′,14′,15′,16′,16a′,17′,18′,18a′,19′-dodecahydro-1′H,2H,3′H,11′H-spiro[naphthalene-1,2′-[5,7]etheno[13,15]methanocyclobuta[i][1,4]oxazepino[3,4-f][1]thia[2,7,16]triazacyclohexadecin]-8′(9′H)-one 10′,10′-dioxide]	0.014 µM	1.3 µM	–	1.51 µM	–

Now those with a lower IC50 [1], led by results:

IC50 [1]	IC50 (NCI-H929 cells; Homo sapiens, NCI-H929, 24 h)	IC50 (NCI-H929 cells; 24 h)	Structure (SMILES)	IC50 (OPM-2 cells; Homo sapiens, OPM-2, 24 h)	IC50 (OPM-2 cells; 24 h)
0.0057 µM	–	1.5 µM	CO[C@H]1C2=CC(CCS(=O)(=O)NC(=O)c3ccc4c(c3)N(C[C@@H]3CC[C@H]31)C[C@@]1(CCCc3cc(Cl)ccc31)CO4)C2 (single isomer, unassigned) [Cpd. No. 1 (Isomer 2)]	–	2.43 µM
0.0048 µM	–	0.12 µM	CO[C@H]1C2=CC(C2)C(C)(C)CS(=O)(=O)NC(=O)c2ccc3c(c2)N(C[C@@H]2CC[C@H]21)C[C@@]1(CCCc2cc(Cl)ccc21)CO3 (single isomer, unassigned) [Cpd. No. 5 (Isomer 1)]	–	0.411 µM
0.0052 µM	–	0.87 µM	CO[C@@H]1C2=CC(C2)C(C)(C)CS(=O)(=O)NC(=O)c2ccc3c(c2)N(C[C@@H]2CC[C@H]21)C[C@@]1(CCCc2cc(Cl)ccc21)CO3 (single isomer, unassigned) [Cpd. No. 6 (Isomer 1)]	–	1.3 µM
0.0063 µM	–	3.4 µM	CO[C@@H]1C2=CC(C2)C(C)(C)CS(=O)(=O)NC(=O)c2ccc3c(c2)N(C[C@@H]2CC[C@H]21)C[C@@]1(CCCc2cc(Cl)ccc21)CO3 (single isomer, unassigned) [Cpd. No. 6 (Isomer 2)]	–	2.87 µM
0.0044 µM	–	0.68 µM	CC[C@@H]1CS(=O)(=O)NC(=O)c2ccc3c(c2)N(C[C@@H]2CC[C@H]2[C@@H](OC)C2=CC1C2)C[C@@]1(CCCc2cc(Cl)ccc21)CO3 (single isomer, unassigned) [Cpd. No. 9 (Isomer 1)]	–	1.17 µM
0.0039 µM	–	0.21 µM	CC[C@@H]1CS(=O)(=O)NC(=O)c2ccc3c(c2)N(C[C@@H]2CC[C@H]2[C@@H](OC)C2=CC1C2)C[C@@]1(CCCc2cc(Cl)ccc21)CO3 (single isomer, unassigned) [Cpd. No. 9 (Isomer 2)]	–	0.26 µM
0.0049 µM	–	1.7 µM	CC[C@@H]1CS(=O)(=O)NC(=O)c2ccc3c(c2)N(C[C@@H]2CC[C@H]2[C@@H](OC)C2=CC1C2)C[C@@]1(CCCc2cc(Cl)ccc21)CO3 (single isomer, unassigned) [Cpd. No. 10 (Isomer 1)]	–	2.5 µM
0.0049 µM	–	0.78 µM	CC[C@@H]1CS(=O)(=O)NC(=O)c2ccc3c(c2)N(C[C@@H]2CC[C@H]2[C@@H](OC)C2=CC1C2)C[C@@]1(CCCc2cc(Cl)ccc21)CO3 (single isomer, unassigned) [Cpd. No. 10 (Isomer 2)]	–	1.13 µM
0.0042 µM	–	0.037 µM	CO[C@H]1C2=CC(C)(C2)[C@H](C)CS(=O)(=O)NC(=O)c2ccc3c(c2)N(C[C@@H]2CC[C@H]21)C[C@@]1(CCCc2cc(Cl)ccc21)CO3 (single isomer, unassigned) [Cpd. No. 18 (Isomer 1)]	–	0.025 µM
0.0049 µM	–	0.44 µM	CO[C@H]1C2=CC(C)(C2)[C@H](C)CS(=O)(=O)NC(=O)c2ccc3c(c2)N(C[C@@H]2CC[C@H]21)C[C@@]1(CCCc2cc(Cl)ccc21)CO3 (single isomer, unassigned) [Cpd. No. 18 (Isomer 2)]	–	1.21 µM
